Measurements taken from patent US20040023972A1, “Use of substituted imidazo[1,2-a]-pyridin-, -pyrimidin-and-pyrazin-3-yl-amine derivatives in the preparation of medicaments for inhibiting NOS” (Gruenenthal GmbH, priority 2000, published 2004).

target: T1, NO synthase (Rattus norvegicus, UniProt P29476); assay: HTS-NOS assay (NOS assay): conversion of radioactive arginine, cation-exchanger filter plate; format: biochemical; details: 10 μM
T1 construct: the supernatant was then removed by decantation and frozen in portions at −80° C; from tissue; host or cells: rat cerebellum, 20,000 g supernatant of homogenate
Procedure: This assay enables the percentage inhibition of NO synthase by an active ingredient to be determined by measuring the NOS activity under the action of the active ingredient. NO synthase is mixed together with radioactively labelled arginine and the active ingredient under suitable conditions. After terminating the NO-forming reaction at a given time, the amount of unconverted arginine is determined directly or indirectly. A comparison of that amount with the amount of arginine that remains in a mixture of NOS and arginine without the addition of active ingredient and under otherwise identical conditions gives the % inhibition of NO synthase by the tested active ingredient. This assay can be carried out as follows:
(a) incubation of NO synthase with labelled arginine as substrate in a reaction vessel,
(b) separation of the labelled arginine from the labelled citrulline optionally formed as a product of the enzymatic reaction, at a time at which the citrulline concentration is increasing,
(c) measurement of the amount of arginine remaining in each case.
Separation is carried out over a filter plate membrane.
This NOS assay is suitable especially for “high throughput screening” (HTS) on microtitre plates (MTP).
In this HTS-NOS assay, radioactive arginine is used as substrate. The assay volume can be chosen in the range from 25 μl to 250 μl, according to the type of microtitre plate (MTP). Depending on the source of the enzyme used, co-factors and co-enzymes are added. Incubation of the batches on this microtitre plate (assay MTP) according to step (a) is carried out at room temperature and is for 5 to 60 minutes according to the enzyme activity used (units). At the end of the incubation (step (a)), the plate is placed into a cell harvester which is equipped with a MTP having a cation-exchanger membrane as the filter base (filter MTP). All batches of the assay MTP are transferred to the filter MTP and filtered off with suction over a cation-exchanger filter plate, a paper filter charged with phosphate groups. The filter MTP is then washed with buffer or water. By means of this procedure, the arginine substrate that remains is bound to the cation exchanger, while the enzymatically formed radioactive citrulline is washed out quantitatively. After drying the filter MTP and adding scintillation liquid, the bound arginine can be counted using a scintillation counter. An uninhibited NOS reaction is reflected in low radioactivity. An inhibited enzyme reaction means that the radioactive arginine has not been converted. This means that a high level of radioactivity is found on the filter.
Rat cerebella were used as the starting tissue. The animals were anaesthetized and sacrificed, the brain tissue, the cerebellum, was removed by dissection, 1 ml of enzyme preparation buffer was added per rat cerebellum (4° C.), and disintegration was carried out using a Polytron homogeniser for 1 minute at 6000 rpm, followed by centrifugation for 15 minutes at 4° C. and 20,000 g; the supernatant was then removed by decantation and frozen in portions at −80° C. (the precipitate was discarded).
96-well MTP having a well capacity of <250 μl were used.
Pipetting sequence: see Table 1.
When the pipetting operation was complete, a cover was placed on the MTP (assay MTP), and incubation was at 25° C. (room temperature (RT)) for from 5 to 60 minutes, according to the amount and activity of the enzyme used.
The contents of the assay MTP were then transferred with the aid of a 96-well cell harvester to a 96-well cation exchanger MTP (filter MTP) and filtered off with suction. This was followed by washing once with […] of H2O (from a bath).
The plate was then dried for 1 hour at 60° C. in a drying cabinet. The underside of the filter MTP was then accurately sealed from beneath with a “back seal”. 35 μl of scintillation fluid per well were then added by means of a pipette. The upper side of the plate was also sealed with a “top seal”. […]

Going from `Cc1cc(C)n2c(Nc3c(C)cccc3C)c(-c3ccccc3F)nc2c1` [Example 34] to `[C-]#[N+]CCCCCCNc1c(-c2cc3ccccc3c3ccccc23)nc2cc(C)ccn12` [Example 118, Methylidyne-[6-(7-methyl-2-phenanthren-9-yl-imidazo[1,2-a]pyridin-3-ylamino)-hexyl]-ammonium], the “HTS-NOS assay: % inhibition (10 μM)” value falls from 61% to 56%.

same assay, conditions: read-out: HTS-NOS assay: % inhibition (10 μM)

Going from `CC(=O)N(c1c(-c2ccc(C(=O)O)o2)nc2cc(C)cc(C)n12)C(C)(C)CC(C)(C)C` [Example 154, 5-{3-[acetyl-(1,1,3,3-tetramethyl-butyl)-amino]-5,7-dimethyl-imidazo[1,2-a]-pyridin-2-yl}-furan-2-carboxylic acid] to `CC(=O)N(c1c(-c2ccc(C(=O)O)o2)nc2nc(C)ccn12)C(C)(C)CC(C)(C)C` [Example 248, 5-{3-[acetyl-(1,1,3,3-tetramethyl-butyl)-amino]-7-methyl-imidazo[1,2-a]-pyrimidin-2-yl}-furan-2-carboxylic acid], the inhibition at 10 µM falls from 60% to 52%.

Compared with `COC(=O)CN(C(C)=O)c1c(-c2ccccc2C)nc2cnccn12` [Example 276, [acetyl-(2-o-tolyl-imidazo[1,2-a]pyrazin-3-yl)-amino]-acetic acid methyl ester], `COc1ccccc1-c1nc2c(C)cccn2c1N(C(C)=O)C(C)(C)CC(C)(C)C` [Example 210, N-[2-(2-methoxy-phenyl)-8-methyl-imidazo[1,2-a]pyridin-3-yl]-N-(1,1,3,3-tetramethyl-butyl)-acetamide] is higher in inhibition at 10 µM: 50% for the first, 53% for the second.

Compared with `CC(=O)N(c1c(C)cccc1C)c1c(-c2ccccc2F)nc2cc(C)cc(C)n12` [Example 182, N-(2,6-dimethyl-phenyl)-N-[2-(2-fluoro-phenyl)-5,7-dimethyl-imidazo[1,2-a]-pyridin-3-yl]-acetamide], `COc1ccc(-c2nc3cc(C)ccn3c2N(C(C)=O)c2c(C)cccc2C)cc1OC` [Example 207, N-[2-(3,4-dimethoxy-phenyl)-7-methyl-imidazo[1,2-a]pyridin-3-yl]-N-(2,6-dimethyl-phenyl)-acetamide] is lower in inhibition at 10 µM: 53% for the first, 51% for the second.

Going from `CC(=O)N(c1c(-c2ccc(C3OCCO3)o2)nc2cc(C)ccn12)C(C)(C)CC(C)(C)C` [Example 196, N-[2-(5-[1,3]dioxolan-2-yl-furan-2-yl)-7-methyl-imidazo[1,2-a]pyridin-3-yl]-N-(1,1,3,3-tetramethyl-butyl)-acetamide] to `COc1ccccc1-c1nc2cc(C)ccn2c1N(C(C)=O)C(C)(C)CC(C)(C)C` [Example 199, N-[2-(2-methoxy-phenyl)-7-methyl-imidazo[1,2-a]pyridin-3-yl]-N-(1,1,3,3-tetramethyl-butyl)-acetamide], the inhibition at 10 µM rises from 54% to 57%.

First: Cc1ccn2c(NC3CCCCC3)c(-c3cccnc3)nc2c1 [Example 23, Cyclohexyl-(7-methyl-2-pyridin-3-yl-imidazo[1,2-a]pyridin-3-yl)-amine]
Second: Cc1ccn2c(NC3CCCCC3)c(-c3ccccn3)nc2c1 [Example 140, Cyclohexyl-(7-methyl-2-pyridin-2-yl-imidazo[1,2-a]pyridin-3-yl)-amine]
The inhibition at 10 µM of the first is higher: 74% for the first, 55% for the second.

Going from `COC(=O)CN(C(C)=O)c1c(C2CCCCC2)nc2cc(C)ccn12` [Example 257, [acetyl-(2-cyclohexyl-7-methyl-imidazo[1,2-a]pyridin-3-yl)-amino]-acetic acid methyl ester] to `CC(=O)N(c1c(-c2cccnc2)nc2cc(C)ccn12)C1CCCCC1` [Example 187, N-cyclohexyl-N-(7-methyl-2-pyridin-3-yl-imidazo[1,2-a]pyridin-3-yl)-acetamide], the inhibition at 10 µM rises from 56% to 67%.

Going from `Cc1ccn2c(NC(C)(C)CC(C)(C)C)c(-c3ccncc3)nc2c1` [Example 29, (7-Methyl-2-pyridin-4-yl-imidazo[1,2-a]-pyridin-3-yl)-(1,1,3,3-tetramethyl-butyl)-amine] to `COc1ccccc1-c1nc2cc(C)ccn2c1NC(C)(C)CC(C)(C)C` [Example 101, [2-(2-Methoxy-phenyl)-7-methyl-imidazo[1,2-a]pyridin-3-yl]-(1,1,3,3-tetramethyl-butyl)-amine], the inhibition at 10 µM falls from 69% to 58%.

Compared with `CC(=O)N(c1c(-c2ccc(Cl)cc2Cl)nc2cccc(C)n12)C1CCCCC1` [Example 274, N-cyclohexyl-N-[2-(2,4-dichloro-phenyl)-5-methyl-imidazo[1,2-a]pyridin-3-yl]-acetamide], `CC(=O)N(c1c(-c2ccc(Cl)cc2Cl)nc2cc(C)cc(C)n12)C(C)(C)CC(C)(C)C` [Example 177, N-[2-(2,4-dichloro-phenyl)-5,7-dimethyl-imidazo[1,2-a]pyridin-3-yl]-N-(1,1,3,3-tetramethyl-butyl)-acetamide] is higher in inhibition at 10 µM: 64% for the first, 67% for the second.

First: Cc1cc(C)n2c(NC(C)(C)CC(C)(C)C)c(-c3ccc(Cl)cc3Cl)nc2c1 [Example 89, [2-(2,4-Dichlorophenyl)-5,7-dimethyl-imidazo[1,2-a]pyridin-3-yl]-(1,1,3,3-tetramethyl-butyl)-amine]
Second: Cc1cc(C)n2c(NC(C)(C)CC(C)(C)C)c(-c3ccc(CO)o3)nc2c1 [Example 62, {5-[5,7-Dimethyl-3-(1,1,3,3-tetramethyl-butylamino)-imidazo[1,2-a]pyridin-2-yl]-furan-2-yl}-methanol]
The inhibition at 10 µM of the first is higher: 68% for the first, 55% for the second.

Going from `CCCCN(C(C)=O)c1c(-c2ccc(C)cc2)nc2nc(C)ccn12` [Example 287, N-butyl-N-(7-methyl-2-p-tolyl-imidazo[1,2-a]pyrimidin-3-yl)-acetamide] to `CC(=O)N(c1c(-c2ccc(C)cc2)nc2cc(C)cc(C)n12)C(C)(C)CC(C)(C)C` [Example 162, N-(5,7-dimethyl-2-p-tolyl-imidazo[1,2-a]pyridin-3-yl)-N-(1,1,3,3-tetramethylbutyl)-acetamide], the inhibition at 10 µM rises from 58% to 67%.

`Cc1cccn2c(NC(C)(C)CC(C)(C)C)c(C3CCCCC3)nc12` [Example 139, (2-Cyclohexyl-8-methyl-imidazo[1,2-a]-pyridin-3-yl)-(1,1,3,3-tetramethyl-butyl)-amine] and `CC(=O)N(c1c(-c2ccc(Br)o2)nc2c(C)cccn12)C(C)(C)CC(C)(C)C` [Example 271, N-[2-(5-bromo-furan-2-yl)-8-methyl-imidazo[1,2-a]pyridin-3-yl]-N-(1,1,3,3-tetramethyl-butyl)-acetamide] are the same in inhibition at 10 µM: 51% for the first, 51% for the second.

First: COc1ccccc1-c1nc2cc(C)cc(C)n2c1N(C(C)=O)C(C)(C)CC(C)(C)C [Example 172, N-[2-(2-methoxy-phenyl)-5,7-dimethyl-imidazo[1,2-a]pyridin-3-yl]-N-(1,1,3,3-tetramethyl-butyl)-acetamide]
Second: Cc1cc(C)n2c(NC(C)(C)C)c(-c3cccc(O)c3)nc2c1 [Example 20, 3-(3-Tert-butylamino-5,7-dimethyl-imidazo[1,2-a]pyridin-2-yl)-phenol]
The inhibition at 10 µM of the first is lower: 62% for the first, 64% for the second.

First: COc1cccc(-c2nc3cc(C)cc(C)n3c2Nc2c(C)cccc2C)c1OC [Example 48, [2-(2,3-Dimethoxy-phenyl)-5,7-dimethyl-imidazo[1,2-a]pyridin-3-yl]-(2,6-dimethyl-phenyl)-amine]
Second: Cc1ccn2c(Nc3c(C)cccc3C)c(-c3ccc(CO)o3)nc2n1 [Example 132, {5-[3-(2,6-Dimethyl-phenylamino)-7-methyl-imidazo[1,2-a]pyrimidin-2-yl]-furan-2-yl}-methanol]
The inhibition at 10 µM of the first is higher: 68% for the first, 52% for the second.

Compared with `CSc1ccc(-c2nc3ncccn3c2N(C(C)=O)C(C)(C)C)s1` [Example 221, N-tert-butyl-N-[2-(5-methylsulfanyl-thiophen-2-yl)-imidazo[1,2-a]pyrimidin-3-yl]-acetamide], `O=[N+]([O-])c1cccc2cn[nH]c12` [7-nitroindazole, reference compound] is lower in inhibition at 10 µM: 54% for the first, 50% for the second.
